In the supplement of paper PMC10307832:

What was measured:
Experiment in all cases: relative viability (nuclei count vs DMSO), 5 days (fraction); higher = more cells survive
4EGI-1 + Crizotinib = compound: O=C(O)C(Cc1ccccc1[N+](=O)[O-])=NNc1nc(-c2ccc(Cl)c(Cl)c2)cs1 (mixture of isomers) [4EGI-1] + C[C@@H](Oc1cc(-c2cnn(C3CCNCC3)c2)cnc1N)c1c(Cl)ccc(F)c1Cl [Crizotinib] (partner 1 µM)
Method in brief: (§1)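 Medians of duplicate plates are given as relative viability. That measure is the nuclei count in treated wells divided by the count in vehicle wells. Counts were taken on 4× images of lung cancer cell lines in 1536-well plates, 5 days after pin-tool dosing the day after seeding with one drug alone or a fixed anchor-drug dose plus five library-drug doses (not always all listed) in √10 steps.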

4EGI-1 + Decitabine = compound: O=C(O)C(Cc1ccccc1[N+](=O)[O-])=NNc1nc(-c2ccc(Cl)c(Cl)c2)cs1 (mixture of isomers) [4EGI-1] + Nc1ncn([C@H]2C[C@H](O)[C@@H](CO)O2)c(=O)n1 [Decitabine] (partner 2 µM)
Method in brief: as §1

XMD8-85 + Dasatinib = compound: CN1CCN(CC1)C2=CC(=C(C=C2)NC3=NC=C4C(=N3)N(C5=CC=CC=C5C(=O)N4C)C)OC [XMD8-85] + Cc1nc(Nc2ncc(C(=O)Nc3c(C)cccc3Cl)s2)cc(N2CCN(CCO)CC2)n1 [Dasatinib] (partner 0.075 µM)
Method in brief: as §1

XMD8-85 + Olaparib = compound: CN1CCN(CC1)C2=CC(=C(C=C2)NC3=NC=C4C(=N3)N(C5=CC=CC=C5C(=O)N4C)C)OC [XMD8-85] + O=C(c1cc(Cc2n[nH]c(=O)c3ccccc23)ccc1F)N1CCN(C(=O)C2CC2)CC1 [Olaparib] (partner 8 µM)
Method in brief: as §1

NCI-H1792
relative viability (4EGI-1 + Crizotinib; first compound 0.5 µM): 0.963 | relative viability (4EGI-1 + Crizotinib; first compound 1.581 µM): 0.772 | relative viability (4EGI-1 + Crizotinib; first compound 5 µM): 0.963 | relative viability (4EGI-1 + Crizotinib; first compound 15.81 µM): 0.842 | relative viability (4EGI-1 + Crizotinib; first compound 50 µM): 0.823 | relative viability (4EGI-1 + Decitabine; first compound 0.5 µM): 0.568 | relative viability (4EGI-1 + Decitabine; first compound 1.581 µM): 0.715 | relative viability (4EGI-1 + Decitabine; first compound 5 µM): 0.6 | relative viability (4EGI-1 + Decitabine; first compound 15.81 µM): 0.488 | relative viability (4EGI-1 + Decitabine; first compound 50 µM): 0.369 | relative viability (XMD8-85 + Dasatinib; first compound 0.253 µM): 0.749 | relative viability (XMD8-85 + Dasatinib; first compound 2.53 µM): 1.15 | relative viability (XMD8-85 + Dasatinib; first compound 8 µM): 0.85 | relative viability (XMD8-85 + Olaparib; first compound 0.253 µM): 0.526 | relative viability (XMD8-85 + Olaparib; first compound 0.8 µM): 0.298 | relative viability (XMD8-85 + Olaparib; first compound 2.53 µM): 0.284 | relative viability (XMD8-85 + Olaparib; first compound 8 µM): 0.318
